# From patent publication US20180251431A1 (VERTEX PHARMACEUTICALS INCORPORATED, priority 2016, published 2018)
# Tested on: HEK293 cells
# Assay: HEK293 VLCFA-LPC IC50 determination (13C-labeled C26:0 LPC by UHPLC/MS)
# Type: cell-based, human
# Conditions: Homo sapiens, HEK293, HEK293 cells; average of one or more replicates; read-out: Average HEK293 IC50
# In short: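 Suspension HEK293 cells (final 0.5 million/mL after mixing with equal volume) incubated 48 hours with compound plus 13C-acetate (1.0 mg/mL in added media), shaking at 37° C. Lipids extracted with hexane/isopropanol or methanol, C13:0 LPC standard. UHPLC/MS of 13C-labeled C26:0 LPC (638.500/104.100 m/z); IC50 by four-parameter fit.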
row,Structure (SMILES),IC50 [nM]
1,"N#Cc1ccccc1C1(C(=O)Nc2ccn(-c3ccnc(F)c3)n2)CC1 [Compound 247, 1-(2-cyanophenyl)-N-[1-(2-fluoro-4-pyridyl)pyrazol-3-yl]cyclopropanecarboxamide]",2500
2,"Cc1cc(C)cc(C2(C(=O)Nc3ccn(-c4ccnc(F)c4)n3)CC2)c1 [Compound 248, 1-(3,5-dimethylphenyl)-N-[1-(2-fIuoro-4-pyridyl)pyrazol-3-yl]cyclopropanecarboxamide]",> 5000
3,"COc1ccc(C2(C(=O)Nc3ccn(-c4ccnc(F)c4)n3)CC2)cc1 [Compound 249, N-[1-(2-fluoro-4-pyridyl)pyrazol-3-yl]-1-(4-methoxyphenyl)cyclopropanecarboxamide]",640
4,"COc1cccc(C2(C(=O)Nc3ccn(-c4ccnc(F)c4)n3)CC2)c1 [Compound 250, N-[1-(2-fluoro-4-pyridyl)pyrazol-3-yl]-1-(3-methoxyphenyl)cyclopropanecarboxamide]",170
5,"O=C(Nc1ccn(-c2ccnc(F)c2)n1)C1(c2ccccc2Cl)CC1 [Compound 251, 1-(2-chlorophenyl)-N-[1-(2-fluoro-4-pyridyl)pyrazol-3-yl]cyclopropanecarboxamide]",110
6,"Cc1ccccc1C1(C(=O)Nc2ccn(-c3ccnc(F)c3)n2)CC1 [Compound 252, N-[1-(2-fluoro-4-pyridyl)pyrazol-3-yl]-1-(o-tolyl)cyclopropanecarboxamide]",400
7,"O=C(Nc1ccn(-c2ccnc(F)c2)n1)C1(c2ccc(Cl)cc2Cl)CC1 [Compound 253, 1-(2,4-dichlorophenyl)-N-[1-(2-fluoro-4-pyridyl)pyrazol-3-yl]cyclopropanecarboxamide]",120
8,"O=C(Nc1ccn(-c2ccnc(F)c2)n1)C1(c2cccc(F)c2)CC1 [Compound 254, 1-(3-fluorophenyl)-N-[1-(2-fluoro-4-pyridyl)pyrazol-3-yl]cyclopropanecarboxamide]",190
9,"O=C(Nc1ccn(-c2ccnc(F)c2)n1)C1(c2ccc(F)cc2)CC1 [Compound 255, 1-(4-fluorophenyl)-N-[1-(2-fluoro-4-pyridyl)pyrazol-3-yl]cyclopropanecarboxamide]",100
10,"O=C(Nc1ccn(-c2ccnc(F)c2)n1)C1(c2cccc(Cl)c2)CC1 [Compound 256, 1-(3-chlorophenyl)-N-[1-(2-fluoro-4-pyridyl)pyrazol-3-yl]cyclopropanecarboxamide]",300
11,"O=C(Nc1ccn(-c2ccnc(F)c2)n1)C1(c2ccc(Cl)cc2)CC1 [Compound 257, 1-(4-chlorophenyl)-N-[1-(2-fluoro-4-pyridyl)pyrazol-3-yl]cyclopropanecarboxamide]",340
12,"[2H]c1nc(C)nc([2H])c1-n1ccc(NC(=O)C2(c3ccccc3F)CC2)n1 [Compound 258, N-[1-(4,6-dideuterio-2-methyl-pyrimidin-5-yl)pyrazol-3-yl]-1-(2-fluorophenyl)cyclopropanecarboxamide]",> 5000
13,"COc1cc(-n2ccc(NC(=O)C3(c4ccccc4F)CC3)n2)ccn1 [Compound 259, 1-(2-fluorophenyl)-N-(1-(2-methoxypyridin-4-yl)-1H-pyrazol-3-yl)cyclopropane-1-carboxamide]",51
14,"O=C(Nc1ccn(-c2ccnc(F)c2)n1)C1(c2cc(F)ccc2F)CC1 [Compound 260, 1-(2,5-difluorophenyl)-N-[1-(2-fluoro-4-pyridyl)pyrazol-3-yl]cyclopropanecarboxamide]",170
15,"O=C(Nc1ccn(-c2ccccc2)n1)C1(c2cc(F)ccc2F)CC1 [Compound 261, 1-(2,5-difluorophenyl)-N-(1-phenylpyrazol-3-yl)cyclopropanecarboxamide]",160
16,"O=C(Nc1ccn(-c2ccnc(F)c2)n1)C1(c2ccc(Cl)cc2F)CC1 [Compound 262, 1-(4-chloro-2-fluoro-phenyl)-N-[1-(2-fluoro-4-pyridyl)pyrazol-3-yl]cyclopropanecarboxamide]",300
17,"O=C(Nc1ccn(-c2ccccc2)n1)C1(c2ccc(Cl)cc2F)CC1 [Compound 263, 1-(4-chloro-2-fluoro-phenyl)-N-(1-phenylpyrazol-3-yl)cyclopropanecarboxamide]",> 5000
